Assay results: EP2548557A1, “Reserpine to treat cognitive faults of the central nervous system” (Dr. Loges + Co. GmbH, priority 2011, dated 2013)
Blank lines part the entries; values can stand above or below the molecule they belong to.

How the values were obtained:
[1] = system: metabotrope Gruppe II Rezeptoren; test: Hippocampus slice preparation: suppression of the reserpine effect by a glutamate receptor antagonist (metabotropic group II); format: cell-based, Ratte; conditions: co-superfusion of antagonist with Reserpin; single and multiple stimuli (Abb. 5, Abb. 6)
Text: (§1) Wirkungen von Reserpin auf die Erregbarkeit der Pyramidenzellen wurden im Hippokampus-Schnittpräparat der Ratte bestimmt. Die Analyse der Wirkungen erfolgte auf zwei Ebenen. Zunächst wurde anhand der Applikation von Einzelreizen die normale Erregbarkeit überprüft und anschließend nach einer sog. "Theta-burst-Stimulation" die Auswirkungen auf die Langzeitpotenzierung gemessen. Im nächsten Schritt wurde versucht, die Wirkung von Reserpin mit Hilfe von verschiedenen Rezeptor-spezifischen Glutamat Antagonisten zu unterdrücken.
(§2) Desweiteren wurde die Erregbarkeit der Pyramidenzellen in der Ausgangslage durch Superfusion mit einem Glutamat Rezeptor Antagonisten verändert. In der Folge wurde dann gleichzeitig Reserpin mit den verschiedenen Antagonisten zusammen superfundiert, um eine antagonistische Wirkung zu erkennen.
(§3) Dieselbe Versuchsanordnung wurde noch einmal genutzt, um in Gegenwart verschiedenster Glutamat Rezeptor Antagonisten Hinweise für eine Interaktion zwischen Reserpin und einem der Glutamat-Rezeptoren (GluR5 Kainate steht dabei für den ionotropen GluR5 Kainate-Rezeptor, Glu NMDA - für ionotrope NMDA-Rezeptoren, Glu AMPA - für ionotrope AMPA-Rezeptoren, und Glu II - für metabotrope Gruppe II Rezeptoren) zu erhalten (Abb. 5 und Abb.6).
(§4) Es wurden vier Antagonisten getestet. Dabei steht UB 301 für den Kainate-Rezeptor-Antagonisten UBP 301, CAS-Nr. 569371-10-4, der Formel [drawing 2] […]

[2] = system: Pyramidenzellen im Hippokampus-Schnittpräparat; conditions: literature description (Dimpfel 1995) used as comparison; cited from earlier work
[3] = system: ionotrope AMPA-Rezeptoren; test: Hippocampus slice preparation: suppression of the reserpine effect by a glutamate receptor antagonist (AMPA); format: cell-based, Ratte; conditions: co-superfusion of antagonist with Reserpin; multiple stimuli
Text: as §1, §2, §3, §4

Fischer-344 Ratten = test: Tele-Stereo-EEG: changes of EEG frequencies (spectral power) after oral administration; format: in vivo, Ratte
Description: Die Veränderungen der EEG-Frequenzen wurde nach oraler Gabe von Lactosemonohydrat (Kontrolle/Vehikel) bzw. Verdünnungen von Reserpin in Lactosemonohydrat entsprechend 0,01, 0,02 oder 0,04 µg Reserpin/kg Körpergewicht) bestimmt.
Die Untersuchungen wurden analog der durch W. Dimpfel beschriebenen Methode (Dimpfel W Preclinical data base of pharmaco-specific rat EEG fingerprints (Tele-Stereo-EEG). Eur J Med Res (2003) 8: 199-207; auf dieses Dokument wird vollinhaltlich bezug genommen) folgendermaßen durchgeführt:
Zwölf männlichen erwachsenen Fischer-344 Ratten (Tag-Nacht konvertiert) wurden im Alter von 6 Monaten 4 bipolar konzentrische Elektroden zusammen mit einem Mikrostecker auf einer gemeinsamen Basisplatte implantiert. Der Stecker diente der Aufnahme eines 4-Kanal-Senders zur telemetrischen Übertragung der aus frontalem Kortex, Hippokampus, Striatum und Formatio Reticularis abgeleiteten Feldpotentiale. Die Signale wurden auf einem Computer System (Software "EEG-Analyse", Betriebssystem OS Science, Laborrechner "LabTeam" der Firma MediSyst, Linden, DE) in Echtzeit einer Fast-FourierTransformation unterworfen und die Leistungsdichtespektren jeweils über 60 Minuten gemittelt. Die Unterteilung der Spektren in 6 verschiedene Frequenzbereiche erlaubte die Erfassung pharmako-spezifischer Veränderungen in Bezug auf die jeweils vor Applikation gemessenen Vorwerte innerhalb dieser Frequenzbänder.
Zum Applikationsprotokoll der Substanzen: die Substanzen wurden oral 45 Minuten nach Beginn der Messungen (Vorwert) appliziert. Fünf Minuten später wurden die Messungen wieder gestartet, mindestens über die nächsten 5 Stunden kontinuierlich analysiert und in 60-minütigen Perioden zusammengefasst. Die Testsubstanz wurde in einer Dosierung von 0,01, 0,02 und 0,04 µg/kg appliziert. Die experimentelle Serie wurde mit der Applikation von Lactosemonohydrat (Kontrolle), die zu keiner auffälligen Änderung führte, begonnen (oberste Zeile in Abb. 1).
Der statistische Vergleich der Versuche zu den Ergebnissen, die nach Gabe des Vehikels gemessen wurde, erfolgte mit Hilfe des statistischen Tests nach Wilcoxon, Mann und Whitney auf der Basis der Veränderungen innerhalb der einzelnen Frequenzbänder in allen Hirnregionen als Variablen.

[4] = system: Pyramidenzellen im Hippokampus-Schnittpräparat; test: Population spike of pyramidal cells and long-term potentiation in hippocampus slice preparation in vitro; format: cell-based, Ratte; conditions: 0,025-0,1 µg/Liter Reserpin, n=4 slices
Text: Zunächst wurde anhand der Applikation von Einzelreizen die normale Erregbarkeit überprüft und anschließend nach einer sog. "Theta-burst-Stimulation" die Auswirkungen auf die Langzeitpotenzierung gemessen.
Das Experiment selbst wurde in einer sog. "Base Unit" mit Haas Top" (Firma Medical Systems Corp., USA) bei 35 Grad Celsius durchgeführt. Der mit Hilfe peristaltischer Pumpen (Infusomat B. Braun Melsungen AG) superfundierte Hippokampus-Schnitt lag auf einem Stück Gaze. Eingeleitetes Carbogen hielt die erforderliche Sauerstoffzufuhr der Lösung aufrecht. Die Durchflussgeschwindigkeit betrug 200 ml/h.
Dabei wurde der Schnitt zunächst mit Kontrolllösung superfundiert. […] Jeder Schnitt wurde jeweils nur zu einem Experiment benutzt.
Die Ableitung der evozierten Antwort erfolgte in 10-minütigem Abstand extrazellulär mit einer gezogenen Glaskapillare (Elektrodenpuller, Rhema Labortechnik, DE). Das Antwortsignal wurde verstärkt (Verstärker "LMI", List Electronics, Darmstadt, DE) mit einem Laborrechnersystem Labteam (Software NeuroTool, MediSyst GmbH, Linden DE) analog digital gewandelt (Auflösung 12 Bit) und ausgewertet. Nach Auffinden eines geeigneten Signals (Amplitudenhöhe etwa 1 mV) wurde die Amplitudenhöhe des Populationsspikes (SAP=Summenaktionspotential; Popspike) als Ausgangsgröße festgelegt. […]

Structure (SMILES): NC1(C(=O)O)CCc2cc(P(=O)(O)O)ccc21 (racemic) [RS-Apica, (RS)-1-Amino-5-phosphono-indan-1-carbonsäure]
- Unterdrückung der Wirkung von Reserpin durch Antagonist [1]: besonders ausgeprägt unterdrücken

Structure (SMILES): CC12CC3CC(C)(C1)CC(N)(C3)C2 [Memantin]
- Langzeit-Potenzierung (LTP) bei multipler elektrischer Reizung [2]: Steigerung der LTP

- Unterdrückung der Wirkung von Reserpin durch Antagonist [3]: auch eine Unterdrückung
Structure (SMILES): NS(=O)(=O)c1cccc2c1c([N+](=O)[O-])cc1[nH]c(=O)c(=O)[nH]c12 [NBQX]

Structure (SMILES): COC(=O)[C@H]1[C@H]2C[C@@H]3c4[nH]c5cc(OC)ccc5c4CCN3C[C@H]2C[C@@H](OC(=O)c2cc(OC)c(OC)c(OC)c2)[C@@H]1OC [Reserpin, (1S,2R,3R,4aS,13bR,14aS)-2,11-Dimethoxy-3-(3,4,5-trimethoxybenzoyloxy)-1,2,3,4,4a,5,7,8,13,13b,14,14a-dodecahydroindolo[2',3':3,4]pyrido[1,2-b]isochinolin-1-carbonsäuremethylester]
- Frequenzmuster in der Diskriminanzanalyse im Vergleich zu Referenzmedikamenten (Fischer-344 Ratten; 0.02 µg/kg, 35 - 65 min, linear discriminant analysis, 4 brain regions x 6 frequency bands, compared with Memantin, Rasagiline, Methylphenidat): korreliert in auffälliger Weise mit den Mustern
- Steigerung der Motilität der Tiere (Fischer-344 Ratten; oral, 0,01, 0,02 and 0,04 µg/kg): nicht beobachtet
- alpha2 Wellen (spektrale Leistung) (Fischer-344 Ratten; oral, 0,01, 0,02 and 0,04 µg/kg, frequency band most affected): Besonders stark waren die alpha2 Wellen betroffen
- spektrale Leistung in allen Frequenzbereichen (EEG) (Fischer-344 Ratten; oral, 0,01, 0,02 and 0,04 µg/kg, frontal cortex, hippocampus, striatum, formatio reticularis, vs. vehicle Lactosemonohydrat, n=12): dosis-abhängigen Unterdrückung der spektralen Leistung in allen Frequenzbereichen
- Amplitude des Populationsspikes bei Einzelreizung ([4]; single stimuli of Schaffer collaterals): Konzentrations-abhängige Zunahme
- Auslösung der Langzeitpotenzierung durch TBS ([4]; theta-burst stimulation): Konzentrations-abhängig verbessert
